Laboratory results published in PubChem BioAssay AID248 (DTP/NCI, 2004).
Where “and” joins values, the source holds several entries; their conditions need not be identical. Equal entries are not always repeated. Toxic doses and inconclusive results are not listed. Rule as the data show it: active = T/C of 150% or more; inactive = T/C below 125%.

Test system: L1210 leukemia ip in BDF1 mice, survival T/C
Experiment: NCI In Vivo Anticancer Drug Screen. Data for tumor model L1210 Leukemia (intraperitoneal) in B6D2F1 (BDF1) mice
Details: endpoint: mean survival time, higher = longer survival
Outline: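 Each compound was tested against a transplantable tumor grown in mice. The endpoint was survival, with treated animals benchmarked against vehicle controls as a simple ratio.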

[1] = dose: 100.0 mg/kg/injection, schedule: Q01DX001 (ip), vehicle: carboxymethylcellulose (CMC)
[2] = dose: 100.0 mg/kg/injection, schedule: Q01DX001 (ip), vehicle: saline
[3] = dose: 200.0 mg/kg/injection, schedule: Q01DX001 (ip), vehicle: carboxymethylcellulose (CMC)
[4] = dose: 400.0 mg/kg/injection, schedule: Q01DX001 (ip), vehicle: carboxymethylcellulose (CMC)
[5] = dose: 200.0 mg/kg/injection, schedule: Q01DX001 (ip), vehicle: saline
[6] = dose: 400.0 mg/kg/injection, schedule: Q01DX001 (ip), vehicle: saline
[7] = dose: 100.0 mg/kg/injection, schedule: Q01DX009 (ip), vehicle: saline
[8] = dose: 200.0 mg/kg/injection, schedule: Q01DX009 (ip), vehicle: saline
[9] = dose: 400.0 mg/kg/injection, schedule: Q01DX009 (ip), vehicle: saline
[10] = dose: 50.0 mg/kg/injection, schedule: Q01DX001 (ip), vehicle: saline
[11] = dose: 100.0 mg/kg/injection, schedule: Q01DX009 (ip), vehicle: Klucel (hydroxypropylcellulose) (HPC)
[12] = dose: 200.0 mg/kg/injection, schedule: Q01DX009 (ip), vehicle: Klucel (hydroxypropylcellulose) (HPC)
[13] = dose: 400.0 mg/kg/injection, schedule: Q01DX009 (ip), vehicle: Klucel (hydroxypropylcellulose) (HPC)
[14] = dose: 100.0 mg/kg/injection, schedule: Q01DX009 (ip), vehicle: saline with Tween-80
[15] = dose: 200.0 mg/kg/injection, schedule: Q01DX009 (ip), vehicle: saline with Tween-80

Measured: T/C

COc1cc([C@@H]2c3cc4c(cc3[C@H](O)[C@H]3COC(=O)[C@@H]23)OCO4)cc(OC)c1OC
inactive: dose: 6.0 mg/kg/injection, schedule: Q01DX009 (ip), vehicle: Klucel (hydroxypropylcellulose) (HPC) 88 % of control | dose: 6.25 mg/kg/injection, schedule: Q01DX009 (ip), vehicle: saline 105 % of control | dose: 7.0 mg/kg/injection, schedule: Q01DX Z (ip), vehicle: methylcellulose (MC) 100 % of control | dose: 11.0 mg/kg/injection, schedule: Q01DX Z (ip), vehicle: methylcellulose (MC) 112 % of control | dose: 12.0 mg/kg/injection, schedule: Q01DX009 (ip), vehicle: Klucel (hydroxypropylcellulose) (HPC) 95 % of control | dose: 12.5 mg/kg/injection, schedule: Q01DX009 (ip), vehicle: saline 107 % of control | dose: 15.0 mg/kg/injection, schedule: Q01DX Z (ip), vehicle: methylcellulose (MC) 116 % of control | dose: 15.0 mg/kg/injection, schedule: Q04DX003 (ip), vehicle: Klucel (hydroxypropylcellulose) (HPC) 107 % of control | dose: 16.0 mg/kg/injection, schedule: Q01DX Z (ip), vehicle: methylcellulose (MC) 120 % of control | dose: 24.0 mg/kg/injection, schedule: Q01DX009 (ip), vehicle: Klucel (hydroxypropylcellulose) (HPC) 101 % of control | dose: 24.0 mg/kg/injection, schedule: Q01DX Z (ip), vehicle: methylcellulose (MC) 88 % of control | dose: 25.0 mg/kg/injection, schedule: Q01DX009 (ip), vehicle: saline 113 % of control | dose: 30.0 mg/kg/injection, schedule: Q01DX Z (ip), vehicle: methylcellulose (MC) 101 % of control | dose: 30.0 mg/kg/injection, schedule: Q04DX003 (ip), vehicle: Klucel (hydroxypropylcellulose) (HPC) 96 % of control | dose: 37.5 mg/kg/injection, schedule: Q04DX003 (ip), vehicle: Klucel (hydroxypropylcellulose) (HPC) 97 % of control | dose: 45.0 mg/kg/injection, schedule: Q01DX001 (ip), vehicle: saline 94 % of control and 102 % of control | dose: 48.0 mg/kg/injection, schedule: Q01DX009 (ip), vehicle: Klucel (hydroxypropylcellulose) (HPC) 120 % of control | dose: 50.0 mg/kg/injection, schedule: Q01DX001 (ip), vehicle: carboxymethylcellulose (CMC) 107 % of control | dose: 60.0 mg/kg/injection, schedule: Q04DX003 (ip), vehicle: Klucel (hydroxypropylcellulose) (HPC) 100 % of control | dose: 65.0 mg/kg/injection, schedule: Q01DX001 (ip), vehicle: saline 96 % of control and 124 % of control | dose: 75.0 mg/kg/injection, schedule: Q01DX009 (ip), vehicle: saline 92 % of control | dose: 75.0 mg/kg/injection, schedule: Q04DX003 (ip), vehicle: Klucel (hydroxypropylcellulose) (HPC) 114 % of control | [1] 105 % of control | [2] 96 % of control | dose: 120.0 mg/kg/injection, schedule: Q04DX003 (ip), vehicle: Klucel (hydroxypropylcellulose) (HPC) 104 % of control | dose: 150.0 mg/kg/injection, schedule: Q01DX001 (ip), vehicle: saline 93 % of control and 107 % of control | dose: 150.0 mg/kg/injection, schedule: Q04DX003 (ip), vehicle: Klucel (hydroxypropylcellulose) (HPC) 111 % of control | [3] 110 % of control | dose: 240.0 mg/kg/injection, schedule: Q04DX003 (ip), vehicle: Klucel (hydroxypropylcellulose) (HPC) 91 % of control | dose: 300.0 mg/kg/injection, schedule: Q04DX003 (ip), vehicle: Klucel (hydroxypropylcellulose) (HPC) 100 % of control | [4] 102 % of control

N#CNS(=O)(=O)c1ccccc1
inactive: [2] 98 % of control | [5] 92 % of control | [6] 98 % of control

C(C#CC1CCCCC1)#CC1CCCCC1
inactive: [7] 94 % of control | [8] 91 % of control | [9] 94 % of control

CN(C)C1(C(=O)O)c2ccccc2-c2ccccc21
inactive: [10] 100 % of control | [2] 100 % of control | [5] 97 % of control

Clc1cccc(Cl)c1/C=N/N1CCN(/N=C/c2c(Cl)cccc2Cl)CC1
inactive: [1] 91 % of control | [3] 89 % of control | [4] 91 % of control

O=C(Nc1cccc(F)c1)Nc1ccc([N+](=O)[O-])cc1Cl
inactive: [11] 101 % of control | [12] 100 % of control | [13] 103 % of control

O=C(O)c1ccc(NC(=O)c2ccc(F)cc2)cc1
inactive: [14] 94 % of control | [15] 96 % of control | dose: 400.0 mg/kg/injection, schedule: Q01DX009 (ip), vehicle: saline with Tween-80 105 % of control

CC(C)C(C)/C=C/C(C)C1CCC2C3CC=C4CC(O)CCC4(C)C3CCC12C (configuration not stated)
inactive: dose: 100.0 mg/kg/injection, schedule: Q01DX001 (ip), vehicle: Klucel (hydroxypropylcellulose) (HPC) 97 % of control | dose: 200.0 mg/kg/injection, schedule: Q01DX001 (ip), vehicle: Klucel (hydroxypropylcellulose) (HPC) 101 % of control | dose: 400.0 mg/kg/injection, schedule: Q01DX001 (ip), vehicle: Klucel (hydroxypropylcellulose) (HPC) 90 % of control

COC(=O)C1CCN1C(C)(C)C (configuration not stated)
inactive: [7] 95 % of control | dose: 100.0 mg/kg/injection, schedule: Q04DX003 (ip), vehicle: saline 111 % of control | [8] 95 % of control | dose: 200.0 mg/kg/injection, schedule: Q04DX003 (ip), vehicle: saline 105 % of control | [9] 103 % of control | dose: 400.0 mg/kg/injection, schedule: Q04DX003 (ip), vehicle: saline 110 % of control

COC(=O)c1ccc(OC(=O)Nc2cc(Cl)ccc2C)cc1
inactive: [14] 106 % of control | [15] 89 % of control

COc1ccc(C)cc1NC(=O)c1ccc(Cl)cc1Cl
inactive: [11] 98 % of control | [12] 101 % of control | [13] 97 % of control

CCOC(=O)CNNC(=O)C(O)C(O)C(O)C(O)CO (configuration not stated)
inactive: [2] 87 % of control | [5] 100 % of control | [6] 100 % of control

Cc1cn(C2SC(CO)C(O)C2O)c(=O)[nH]c1=O (configuration not stated)
inactive: [10] 97 % of control | [2] 105 % of control | [5] 100 % of control | [6] 100 % of control

CCn1ncc2c(Nc3ccccc3)c(C(=O)c3ccccc3)cnc21
inactive: dose: 100.0 mg/kg/injection, schedule: Q04DX003 (ip), vehicle: Klucel (hydroxypropylcellulose) (HPC) 93 % of control | dose: 200.0 mg/kg/injection, schedule: Q04DX003 (ip), vehicle: Klucel (hydroxypropylcellulose) (HPC) 97 % of control | dose: 400.0 mg/kg/injection, schedule: Q04DX003 (ip), vehicle: Klucel (hydroxypropylcellulose) (HPC) 97 % of control

CCCCN(CCCC)CC(=O)Nc1ccc(C(=O)OCC(C)C)cc1
inactive: dose: 20.0 mg/kg/injection, schedule: Q01DX Z (ip), vehicle: saline 97 % of control | dose: 30.0 mg/kg/injection, schedule: Q01DX Z (ip), vehicle: saline 98 % of control | dose: 45.0 mg/kg/injection, schedule: Q01DX Z (ip), vehicle: saline 106 % of control | dose: 68.0 mg/kg/injection, schedule: Q01DX Z (ip), vehicle: saline 97 % of control
